Measurements from ChEMBL document CHEMBL1144814, “5-Sulfonyl-benzimidazoles as selective CB2 agonists” (Bioorg Med Chem Lett, 2008).

Key:
Cannabinoid receptor 2 = Cannabinoid receptor 2 (Homo sapiens, UniProt P34972); assay: Agonist activity at human CB2 receptor; assay type: functional
[1] = Ratio of EC50 for CB2 receptor to EC50 for CB1 receptor (unknow origin)
[2] = Metabolism in human liver microsomes after 15 mins
[3] = target: T1, Cannabinoid receptor 2 (Rattus norvegicus) (UniProt Q9QZN9); assay: Agonist activity at rat CB2 receptor; assay type: functional
T1 sequence (whole entry): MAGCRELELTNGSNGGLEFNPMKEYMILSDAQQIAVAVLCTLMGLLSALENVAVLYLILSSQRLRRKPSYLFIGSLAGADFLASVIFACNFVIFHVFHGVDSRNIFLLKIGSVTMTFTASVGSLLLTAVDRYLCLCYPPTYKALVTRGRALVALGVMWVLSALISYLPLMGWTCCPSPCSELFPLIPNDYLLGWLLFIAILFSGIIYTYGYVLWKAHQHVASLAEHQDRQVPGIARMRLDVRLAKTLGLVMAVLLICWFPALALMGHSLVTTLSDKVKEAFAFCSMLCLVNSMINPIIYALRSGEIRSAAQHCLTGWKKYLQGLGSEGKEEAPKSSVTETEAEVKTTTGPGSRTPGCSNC

Cytochrome P450 1A2 = target: T2, Cytochrome P450 1A2 (Homo sapiens, UniProt P05177); assay: Inhibition of CYP1A2; assay type: ADME
T2 sequence (P05177 whole entry): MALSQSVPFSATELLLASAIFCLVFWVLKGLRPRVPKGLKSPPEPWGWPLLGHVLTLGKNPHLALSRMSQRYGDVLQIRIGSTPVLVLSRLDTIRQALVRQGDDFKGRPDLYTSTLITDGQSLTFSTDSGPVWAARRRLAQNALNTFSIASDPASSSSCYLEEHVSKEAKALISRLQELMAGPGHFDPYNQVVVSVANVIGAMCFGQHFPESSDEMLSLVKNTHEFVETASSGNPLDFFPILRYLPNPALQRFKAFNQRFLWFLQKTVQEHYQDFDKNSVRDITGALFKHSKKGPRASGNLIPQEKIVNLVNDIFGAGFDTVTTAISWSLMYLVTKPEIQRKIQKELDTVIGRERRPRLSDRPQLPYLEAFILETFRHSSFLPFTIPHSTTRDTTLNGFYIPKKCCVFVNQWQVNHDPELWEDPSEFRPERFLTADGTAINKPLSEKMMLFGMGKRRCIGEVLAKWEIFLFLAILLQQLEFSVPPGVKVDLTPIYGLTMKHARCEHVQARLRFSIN

Cytochrome P450 2C19 = Cytochrome P450 2C19 (Homo sapiens, UniProt P33261); assay: Inhibition of CYP2C19; assay type: ADME
Cytochrome P450 2C9 = Cytochrome P450 2C9 (Homo sapiens, UniProt P11712); assay: Inhibition of CYP2C9; assay type: ADME
Cytochrome P450 2D6 = Cytochrome P450 2D6 (Homo sapiens, UniProt P10635); assay: Inhibition of CYP2D6; assay type: ADME
Cytochrome P450 3A4 = Cytochrome P450 3A4 (Homo sapiens, UniProt P08684); assay: Inhibition of CYP3A4; assay type: ADME
[4] = Solubility at pH 7.4; assay type: physicochemical; conditions: buffer
[5] = Solubility at pH 4; assay type: physicochemical; conditions: buffer
[6] = Oral bioavailability in Sprague-Dawley rat at 10 mg/kg; assay type: ADME, organism-based; conditions: in vivo
[7] = Ratio of drug level in brain to plasma in Sprague-Dawley rat at 10 mg/kg, po; assay type: ADME, organism-based; set-up: dose 10 mg/kg, route oral; conditions: read-out: BPR
[8] = Cmax in Sprague-Dawley rat at 10 mg/kg, po; assay type: ADME, organism-based; set-up: dose 10 mg/kg, route oral; conditions: in vivo
[9] = Tmax in Sprague-Dawley rat at 10 mg/kg, po; assay type: ADME, organism-based; set-up: dose 10 mg/kg, route oral; conditions: in vivo
[10] = Half life in Sprague-Dawley rat at 10 mg/kg, po; assay type: ADME, organism-based; set-up: dose 10 mg/kg, route oral; conditions: in vivo
[11] = AUC (0 to infinity) in Sprague-Dawley rat at 10 mg/kg, po; assay type: ADME, organism-based; set-up: time infinity, dose 10 mg/kg, route oral; conditions: plasma
Rattus norvegicus = assay: Induction of CB1-mediated side effects in Sprague-Dawley rat at 40 mg/kg, po by tetrad test; assay type: organism-based; set-up: dose 40 mg/kg, route oral; conditions: in vivo
CYP2C19 = CYP2C19 (Homo sapiens, UniProt P33261); assay: Inhibition of CYP2C19 at 10 uM; assay type: ADME
CYP2C9 = CYP2C9 (Homo sapiens, UniProt P11712); assay: Inhibition of CYP2C9 at 10 uM; assay type: ADME
[12] = Fraction of dose absorbed in Sprague-Dawley rat at 10 mg/kg, po; assay type: ADME, organism-based; set-up: dose 10 mg/kg, route oral; conditions: in vivo, read-out: Fabs

Chain of Cannabinoid receptor 2 (P34972 whole entry): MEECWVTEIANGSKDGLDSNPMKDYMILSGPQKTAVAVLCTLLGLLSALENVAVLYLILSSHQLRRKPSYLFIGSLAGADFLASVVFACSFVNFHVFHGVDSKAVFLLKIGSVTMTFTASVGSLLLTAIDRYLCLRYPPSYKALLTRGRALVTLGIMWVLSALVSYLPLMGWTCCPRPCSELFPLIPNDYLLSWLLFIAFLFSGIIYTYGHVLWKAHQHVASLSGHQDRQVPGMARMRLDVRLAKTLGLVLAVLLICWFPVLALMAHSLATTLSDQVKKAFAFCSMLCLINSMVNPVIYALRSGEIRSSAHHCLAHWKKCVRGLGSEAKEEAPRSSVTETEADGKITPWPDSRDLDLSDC
Chain of Cytochrome P450 2D6 (P10635 whole entry): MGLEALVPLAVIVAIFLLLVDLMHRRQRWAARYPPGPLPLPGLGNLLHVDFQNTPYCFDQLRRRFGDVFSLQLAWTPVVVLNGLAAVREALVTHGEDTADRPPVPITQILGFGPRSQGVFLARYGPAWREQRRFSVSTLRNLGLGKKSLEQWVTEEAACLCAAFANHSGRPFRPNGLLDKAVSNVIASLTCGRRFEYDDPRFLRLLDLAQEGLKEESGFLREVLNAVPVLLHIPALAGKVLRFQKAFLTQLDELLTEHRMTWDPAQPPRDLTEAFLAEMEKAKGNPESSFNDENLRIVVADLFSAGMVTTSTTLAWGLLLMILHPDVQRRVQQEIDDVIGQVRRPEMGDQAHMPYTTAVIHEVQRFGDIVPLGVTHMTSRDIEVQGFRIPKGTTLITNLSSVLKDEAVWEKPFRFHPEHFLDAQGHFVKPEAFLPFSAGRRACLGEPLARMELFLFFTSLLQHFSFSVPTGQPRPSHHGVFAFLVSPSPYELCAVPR
Chain of Cytochrome P450 3A4 (P08684 whole entry): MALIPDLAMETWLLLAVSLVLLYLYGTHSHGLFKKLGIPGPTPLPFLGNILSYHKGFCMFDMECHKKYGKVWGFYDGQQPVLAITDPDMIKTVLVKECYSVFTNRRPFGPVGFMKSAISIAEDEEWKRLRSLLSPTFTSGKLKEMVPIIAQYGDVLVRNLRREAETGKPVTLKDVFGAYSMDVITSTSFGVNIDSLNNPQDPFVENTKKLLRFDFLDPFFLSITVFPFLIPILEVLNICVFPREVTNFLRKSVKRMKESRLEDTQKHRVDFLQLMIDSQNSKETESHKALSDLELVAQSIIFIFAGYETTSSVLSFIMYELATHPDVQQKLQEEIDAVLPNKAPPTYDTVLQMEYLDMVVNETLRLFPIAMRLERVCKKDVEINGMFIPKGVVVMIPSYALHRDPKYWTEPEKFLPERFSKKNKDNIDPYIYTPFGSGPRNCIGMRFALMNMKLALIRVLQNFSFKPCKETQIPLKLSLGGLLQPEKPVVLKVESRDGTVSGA
Chain of Cytochrome P450 2C19 (P33261 whole entry): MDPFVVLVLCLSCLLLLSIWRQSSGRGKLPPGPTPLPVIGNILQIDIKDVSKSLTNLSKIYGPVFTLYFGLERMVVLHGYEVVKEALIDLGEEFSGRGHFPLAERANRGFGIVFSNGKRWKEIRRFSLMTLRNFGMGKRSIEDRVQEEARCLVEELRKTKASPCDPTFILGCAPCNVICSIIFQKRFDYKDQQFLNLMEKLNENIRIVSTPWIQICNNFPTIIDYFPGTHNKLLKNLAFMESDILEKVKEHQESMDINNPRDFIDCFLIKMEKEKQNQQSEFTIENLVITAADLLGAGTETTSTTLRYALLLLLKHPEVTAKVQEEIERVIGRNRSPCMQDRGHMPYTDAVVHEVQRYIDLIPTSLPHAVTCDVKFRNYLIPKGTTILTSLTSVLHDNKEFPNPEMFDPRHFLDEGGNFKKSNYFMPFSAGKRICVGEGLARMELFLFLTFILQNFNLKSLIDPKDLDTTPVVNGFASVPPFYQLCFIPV
Chain of CYP2C19 (P33261 whole entry): as above
Chain of CYP2C9 (P11712 whole entry): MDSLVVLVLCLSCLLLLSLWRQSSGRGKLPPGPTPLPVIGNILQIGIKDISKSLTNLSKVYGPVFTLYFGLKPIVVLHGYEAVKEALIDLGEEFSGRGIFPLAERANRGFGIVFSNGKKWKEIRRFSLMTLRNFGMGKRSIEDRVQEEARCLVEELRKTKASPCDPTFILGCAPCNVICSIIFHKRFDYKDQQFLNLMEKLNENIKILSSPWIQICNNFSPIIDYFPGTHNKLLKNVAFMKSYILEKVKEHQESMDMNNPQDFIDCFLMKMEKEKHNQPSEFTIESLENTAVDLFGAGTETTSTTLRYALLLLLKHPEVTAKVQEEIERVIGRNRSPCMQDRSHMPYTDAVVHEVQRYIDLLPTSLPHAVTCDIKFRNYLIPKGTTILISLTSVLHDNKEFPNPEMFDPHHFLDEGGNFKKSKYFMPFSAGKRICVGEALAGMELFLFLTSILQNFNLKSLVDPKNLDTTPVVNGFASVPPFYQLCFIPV
Chain of Cytochrome P450 2C9 (P11712 whole entry): as above

Row | SMILES | EC50 (Cannabinoid receptor 2) [nM] | Ratio EC50 [1] | metabolized at 0.25 h [2] [%] | other results
1 | CC(C)(C)c1nc2cc(S(=O)(=O)CCC(F)(F)F)ccc2n1CC1CCOCC1 | 1.3 | 394 | 13 | 
2 | CCOc1ccc(Cc2nc3cc(S(=O)(=O)CC)c(Cl)cc3n2CC2CCOCC2)cc1 | 20 | 537 | 66 | 
3 | CC(C)(C)c1nc2cc(S(=O)(=O)C(F)(F)c3ccc(C#N)cc3)ccc2n1CC1CCCCC1 | 1.6 | 62 | 28 | 
4 | CCNCCCS(=O)(=O)c1ccc2c(c1)nc(C(C)(C)C)n2CC1CCOCC1 | 158 | 4.3 |  | 
5 | CC(C)(C)c1nc2cc(S(=O)(=O)CCC#N)ccc2n1CC1CCOCC1 | 4 | 2110 | 24 | 
6 | CC(C)(C)c1nc2cc(S(=O)(=O)c3ccnc(F)c3)ccc2n1CC1CCOCC1 | 0.8 | 495 | 40 | 
7 | CC(C)(C)c1nc2cc(S(=O)(=O)c3nccs3)ccc2n1CC1CCOCC1 | 0.8 | 4 | 25 | 
8 | CCS(=O)(=O)c1ccc2c(c1)nc(C1CC1)n2CC1CCOCC1 | 4 |  |  | Efficacy (Cannabinoid receptor 2): 109%; Efficacy [3]: 0%
9 | CCOc1ccc(Cc2nc3cc(SCC)c(Cl)cc3[nH]2)cc1 | 2000 |  |  | 
10 | CC(C)(C)c1nc2cc(S(=O)(=O)c3cccc(C#N)c3)ccc2n1CC1CCOCC1 | 0.5 | 1460 | 61 | 
11 | CC(=O)NCCCS(=O)(=O)c1ccc2c(c1)nc(C(C)(C)C)n2CC1CCOCC1 | 100 | 109 |  | 
12 | CC(C)(C)c1nc2cc(S(=O)(=O)CCN)ccc2n1CC1CCOCC1 | 10 | 912 |  | 
13 | CCOc1ccc(Cc2nc3cc(S(=O)(=O)CC)c(Cl)cc3n2CC2CCCCC2)cc1 | 5 | 50 | 74 | 
14 | CCS(=O)(=O)c1ccc2c(c1)nc(C(C)(C)C)n2CC1CCOCC1 | 1.2 | 551 | 0 | Efficacy (Cannabinoid receptor 2): 120%; Efficacy [3]: 102%
15 | CCOc1ccc(Cc2nc3cc(SCC)c(Cl)cc3n2CC2CCOCC2)cc1 | 4 | 75 | 98 | 
16 | CC(C)(C)c1nc2cc(S(=O)(=O)c3ccco3)ccc2n1CC1CCOCC1 | 0.4 | 40 |  | 
17 | CCOc1ccc(Cc2nc3cc(S(=O)(=O)CC)ccc3n2CC2CCOCC2)cc1 | 4 | 1600 | 34 | Efficacy (Cannabinoid receptor 2): 44%
18 | CCOc1ccc(Cc2nc3cc([S+]([O-])CC)c(Cl)cc3n2CC2CCCCC2)cc1 (configuration not stated) | 6.3 | 8.2 |  | 
19 | CC(C)(C)c1nc2cc(S(=O)(=O)c3c(Cl)cccc3Cl)ccc2n1CC1CCOCC1 | 0.4 | 292 | 96 | 

Row | SMILES | EC50 (Cannabinoid receptor 2) [nM] | Ratio EC50 [1] | metabolized at 0.25 h [2] [%] | other results
20 | CC(C)(C)c1nc2cc(S(=O)(=O)CCCC(F)(F)F)ccc2n1CC1CCOCC1 | 1 | 285 | 36 | 
21 | CCS(=O)(=O)c1ccc2c(c1)nc(CC(C)C)n2CC1CCOCC1 | 4 |  |  | Efficacy (Cannabinoid receptor 2): 101%; Efficacy [3]: 43%
22 | CC(C)(C)c1nc2cc(S(=O)(=O)c3ccc(C#N)cc3)ccc2n1CC1CCOCC1 | 0.6 | 191 | 42 | 
23 | CC(=O)N(C)Cc1ccc(S(=O)(=O)c2ccc3c(c2)nc(C(C)(C)C)n3CC2CCOCC2)cc1 | 1.6 | 550 | 50 | 
24 | CC(C)(C)c1nc2cc(S(=O)(=O)CC3CC3)ccc2n1CC1CCOCC1 | 1.3 | 121 | 14 | 
25 | [O-][S+](Cc1ccc(Cl)cc1)c1cc2nc(C3CCCCC3)[nH]c2cc1Cl (configuration not stated) | < 1 | > 1000 | < 50 | Efficacy (Cannabinoid receptor 2): > 100%; Inhibition (Cytochrome P450 1A2): < 50%; Inhibition (Cytochrome P450 2C19): < 50%; Inhibition (Cytochrome P450 2C9): < 50%; Inhibition (Cytochrome P450 2D6): < 50%; Inhibition (Cytochrome P450 3A4): < 50%; solubility [4]: > 20 µM; solubility [5]: > 20 µM
26 | CCOc1ccc(Cc2nc3cc(SCC)c(Cl)cc3n2CC2CCCCC2)cc1 | 125 | 1.2 | 85 | 
27 | Cc1cc(S(=O)(=O)c2ccc3c(c2)nc(C(C)(C)C)n3CC2CCOCC2)ccn1 | 1.3 | 1620 | 40 | 
28 | CCS(=O)(=O)c1ccc2c(c1)nc(C)n2CC1CCCCC1 | 31 |  |  | 
29 | CCOc1ccc(Cc2nc3cc([S+]([O-])CC)c(Cl)cc3n2CC2CCOCC2)cc1 (configuration not stated) | 20 | 484 | 95 | 
30 | CC(C)(C)c1nc2cc(S(=O)(=O)Cc3ccc(C#N)cc3)ccc2n1CC1CCCCC1 | 0.5 | 436 | 73 | 
31 | CCOc1cc(S(=O)(=O)c2ccc3c(c2)nc(C(C)(C)C)n3CC2CCOCC2)ccn1 | 0.3 | 4270 | 48 | bioavailability [6]: 43%; Kp [7]: 0.1; Cmax [8]: 731 ng/mL; Tmax [9]: 0.5 h; half-life [10]: 3.4 h; AUC(0-inf) [11]: 2500 ng·h/mL; Activity (Rattus norvegicus): Non-toxic; inhibition at 10 µM (CYP2C19): 76%; inhibition at 10 µM (CYP2C9): 94%; Fa [12]: ≤ 1%
32 | CC(C)(C)c1nc2cc(S(=O)(=O)c3ccc(CN)cc3)ccc2n1CC1CCOCC1 | 5 | 363 |  | 
33 | CC(C)(C)c1nc2cc(S(=O)(=O)c3ccccc3)ccc2n1CC1CCCCC1 | 1.2 | 14 | 23 | 
34 | CC(C)(C)c1nc2cc(S(=O)(=O)CCO)ccc2n1CC1CCOCC1 | 2.5 | 3850 | 6 | 
35 | CCOc1ccc(Cc2nc3cc(Cl)c([S+]([O-])CC)cc3[nH]2)cc1 (configuration not stated) | > 10000 |  |  | 
36 | CCS(=O)(=O)c1ccc2c(c1)nc(C(C)(C)C)n2CC1CCCCC1 | 0.8 |  |  | Efficacy (Cannabinoid receptor 2): 104%
37 | CCS(=O)(=O)c1ccc2c(c1)nc(C(C)C)n2CC1CCCCC1 | 1.6 |  |  | Efficacy (Cannabinoid receptor 2): 101%; Efficacy [3]: 99%
38 | CC(C)(C)c1nc2cc(S(=O)(=O)c3ccncc3)ccc2n1CC1CCOCC1 | 1.2 | 215 | 28 | 
